We go through 26 molecules from ChEMBL document CHEMBL3992526, “Antagonizing NOD2 Signaling with Conjugates of Paclitaxel and Muramyl Dipeptide Derivatives Sensitizes Paclitaxel Therapy and Significantly Prevents Tumor Metastasis” (J Med Chem, 2017).

Sequence of Nucleotide-binding oligomerization domain-containing protein 2 (Q9HC29 whole entry, the tested form may be a part): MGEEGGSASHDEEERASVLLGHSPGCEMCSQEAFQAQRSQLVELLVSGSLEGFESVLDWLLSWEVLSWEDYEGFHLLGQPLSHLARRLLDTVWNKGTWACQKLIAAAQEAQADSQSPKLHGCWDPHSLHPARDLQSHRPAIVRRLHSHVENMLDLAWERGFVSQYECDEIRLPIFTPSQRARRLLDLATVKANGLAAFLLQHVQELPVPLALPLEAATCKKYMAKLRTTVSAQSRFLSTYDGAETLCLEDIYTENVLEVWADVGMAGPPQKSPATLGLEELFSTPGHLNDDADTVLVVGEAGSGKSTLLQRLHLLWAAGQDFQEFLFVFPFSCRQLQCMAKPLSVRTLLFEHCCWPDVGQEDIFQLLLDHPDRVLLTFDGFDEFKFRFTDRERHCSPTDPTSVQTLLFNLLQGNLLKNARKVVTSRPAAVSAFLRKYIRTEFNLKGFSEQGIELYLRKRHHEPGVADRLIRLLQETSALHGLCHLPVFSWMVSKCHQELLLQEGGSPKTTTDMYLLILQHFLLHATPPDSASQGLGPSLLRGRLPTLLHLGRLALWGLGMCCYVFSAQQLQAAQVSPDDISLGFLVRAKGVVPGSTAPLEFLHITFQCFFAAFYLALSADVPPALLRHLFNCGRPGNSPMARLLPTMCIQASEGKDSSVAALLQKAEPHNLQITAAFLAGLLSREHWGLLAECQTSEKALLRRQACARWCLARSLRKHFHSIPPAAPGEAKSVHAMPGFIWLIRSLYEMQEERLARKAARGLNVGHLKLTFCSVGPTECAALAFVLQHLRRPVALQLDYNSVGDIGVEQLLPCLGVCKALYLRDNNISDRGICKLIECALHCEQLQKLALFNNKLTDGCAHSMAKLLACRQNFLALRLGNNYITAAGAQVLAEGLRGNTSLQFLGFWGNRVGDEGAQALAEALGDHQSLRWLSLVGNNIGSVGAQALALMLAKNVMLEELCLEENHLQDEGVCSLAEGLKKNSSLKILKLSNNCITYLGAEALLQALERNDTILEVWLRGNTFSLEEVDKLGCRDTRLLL

The assay concerns the target Nucleotide-binding oligomerization domain-containing protein 2 (Homo sapiens, UniProt Q9HC29). In words: Inhibition of MDP-induced human NOD2 signaling expressed in HEK-Blue cells at 10 uM preincubated for 3 hrs followed by MDP-stimulation for 20 hrs by spectrophotometry based SEAP reporter gene assay relative to control. The class given is cell-based.
Usually inhibition stands for the drop in the measured response relative to a control, in per cent. In the case of `CC(=O)O[C@@]12CO[C@@H]1C[C@H](O)[C@@]1(C)C(=O)[C@H](O)C3=C(C)[C@@H](OC(=O)[C@H](OCCC(=O)NCCCC[C@H](NC(=O)CC[C@@H](NC(=O)[C@H](C)NC(=O)/C=C/c4ccc(C)cc4)C(N)=O)C(=O)O)[C@@H](NC(=O)C(C)(C)C)c4ccccc4)C[C@@](O)([C@@H](OC(=O)c4ccccc4)[C@H]21)C3(C)C`, the inhibition came out at 25%.

For `COC(=O)[C@H](OCCC(=O)NCCCC[C@H](NC(=O)CC[C@@H](NC(=O)[C@H](C)NC(=O)/C=C/c1ccc(Cl)cc1F)C(N)=O)C(N)=O)[C@@H](NC(=O)c1ccccc1)c1ccccc1`, the inhibition was -7%. As for `CC(=O)O[C@H]1C(=O)[C@@]2(C)[C@H]([C@H](OC(=O)c3ccccc3)[C@]3(O)C[C@H](OC(=O)[C@H](OCCC(=O)NCCCC[C@H](NC(=O)CC[C@@H](NC(=O)[C@H](C)NC(=O)/C=C/c4ccc(F)cc4F)C(N)=O)C(=O)O)[C@@H](NC(=O)c4ccccc4)c4ccccc4)C(C)=C1C3(C)C)[C@]1(OC(C)=O)CO[C@@H]1C[C@@H]2O`, the figure is 21%; as for `CC(=O)O[C@@]12CO[C@@H]1C[C@H](O)[C@@]1(C)C(=O)[C@H](O)C3=C(C)[C@@H](OC(=O)[C@H](OCCC(=O)NCCCC[C@H](NC(=O)CC[C@@H](NC(=O)[C@H](C)NC(=O)c4ccc(Cl)cc4)C(N)=O)C(=O)O)[C@@H](NC(=O)C(C)(C)C)c4ccccc4)C[C@@](O)([C@@H](OC(=O)c4ccccc4)[C@H]21)C3(C)C`, 14%. Regarding `CC(=O)O[C@@]12CO[C@@H]1C[C@H](O)[C@@]1(C)C(=O)[C@H](O)C3=C(C)[C@@H](OC(=O)[C@H](OCCC(=O)NCCCC[C@H](NC(=O)CC[C@@H](NC(=O)[C@H](C)NC(=O)/C=C/c4cccs4)C(N)=O)C(=O)O)[C@@H](NC(=O)C(C)(C)C)c4ccccc4)C[C@@](O)([C@@H](OC(=O)c4ccccc4)[C@H]21)C3(C)C`, the inhibition was found to be 26%. As for `CC(=O)O[C@H]1C(=O)[C@]2(C)[C@@H](OCCC(=O)NCCCC[C@H](NC(=O)CC[C@@H](NC(=O)[C@H](C)NC(=O)/C=C/c3ccc(Cl)cc3F)C(N)=O)C(N)=O)C[C@H]3OC[C@@]3(OC(C)=O)[C@H]2[C@H](OC(=O)c2ccccc2)[C@]2(O)C[C@H](O)C(C)=C1C2(C)C`, the figure is 9%; as for `CCCCOC(=O)[C@H](OCCC(=O)NCCCC[C@H](NC(=O)CC[C@@H](NC(=O)[C@H](C)NC(=O)/C=C/c1ccc(Cl)cc1F)C(N)=O)C(N)=O)[C@@H](NC(=O)c1ccccc1)c1ccccc1`, -6%; as for `CC(=O)O[C@@]12CO[C@@H]1C[C@H](O)[C@@]1(C)C(=O)[C@H](OCCC(=O)NCCCC[C@H](NC(=O)CC[C@@H](NC(=O)[C@H](C)NC(=O)/C=C/c3ccc(Cl)cc3F)C(N)=O)C(N)=O)C3=C(C)[C@@H](O)C[C@@](O)([C@@H](OC(=O)c4ccccc4)[C@H]21)C3(C)C`, 22%. To `CC(=O)O[C@H]1C(=O)[C@@]2(C)[C@H]([C@H](OC(=O)c3ccccc3)[C@]3(O)C[C@H](OCCC(=O)NCCCC[C@H](NC(=O)CC[C@@H](NC(=O)[C@H](C)NC(=O)/C=C/c4ccc(Cl)cc4F)C(N)=O)C(N)=O)C(C)=C1C3(C)C)[C@]1(OC(C)=O)CO[C@@H]1C[C@@H]2O` belongs 6%; to `CC(=O)O[C@@]12CO[C@@H]1C[C@H](O)[C@@]1(C)C(=O)[C@H](O)C3=C(C)[C@@H](OC(=O)[C@H](OCCC(=O)NCCCC[C@H](NC(=O)CC[C@@H](NC(=O)[C@H](C)NC(=O)c4ccc5ccccc5n4)C(N)=O)C(=O)O)[C@@H](NC(=O)C(C)(C)C)c4ccccc4)C[C@@](O)([C@@H](OC(=O)c4ccccc4)[C@H]21)C3(C)C`, 28%. `CC(=O)O[C@H]1C(=O)[C@@]2(C)[C@H]([C@H](OC(=O)c3ccccc3)[C@]3(O)C[C@H](OC(=O)[C@H](OCCC(=O)NCCCC[C@H](NC(=O)CC[C@@H](NC(=O)[C@H](C)NC(=O)/C=C/c4ccc(Br)cc4)C(N)=O)C(=O)O)[C@@H](NC(=O)c4ccccc4)c4ccccc4)C(C)=C1C3(C)C)[C@]1(OC(C)=O)CO[C@@H]1C[C@@H]2O`: the inhibition was 44%. `CC(=O)O[C@@]12CO[C@@H]1C[C@H](O)[C@@]1(C)C(=O)[C@H](O)C3=C(C)[C@@H](OC(=O)[C@H](OCCC(=O)NCCCC[C@H](NC(=O)CC[C@@H](NC(=O)[C@H](C)NC(=O)c4ccccc4)C(N)=O)C(=O)O)[C@@H](NC(=O)C(C)(C)C)c4ccccc4)C[C@@](O)([C@@H](OC(=O)c4ccccc4)[C@H]21)C3(C)C`: the inhibition worked out at 20%. Turning to `CC(=O)O[C@@]12CO[C@@H]1C[C@H](O)[C@@]1(C)C(=O)[C@H](O)C3=C(C)[C@@H](OC(=O)[C@H](OCCC(=O)NCCCC[C@H](NC(=O)CC[C@@H](NC(=O)[C@H](C)NC(=O)/C=C/c4ccc(Cl)cc4F)C(N)=O)C(=O)O)[C@@H](NC(=O)C(C)(C)C)c4ccccc4)C[C@@](O)([C@@H](OC(=O)c4ccccc4)[C@H]21)C3(C)C`, the inhibition is 32%. As to `CC(=O)O[C@@]12CO[C@@H]1C[C@H](O)[C@@]1(C)C(=O)[C@H](O)C3=C(C)[C@@H](OC(=O)[C@H](OCCC(=O)NCCCC[C@H](NC(=O)CC[C@@H](NC(=O)[C@H](C)NC(=O)/C=C/c4ccc(F)cc4F)C(N)=O)C(=O)O)[C@@H](NC(=O)C(C)(C)C)c4ccccc4)C[C@@](O)([C@@H](OC(=O)c4ccccc4)[C@H]21)C3(C)C`, the inhibition came to 28%. In the case of `CC(=O)O[C@H]1C(=O)[C@@]2(C)[C@H]([C@H](OC(=O)c3ccccc3)[C@]3(O)C[C@H](OC(=O)[C@H](OCCC(=O)NCCCC[C@H](NC(=O)CC[C@@H](NC(=O)[C@H](C)NC(=O)/C=C/c4ccc(C)cc4)C(N)=O)C(=O)O)[C@@H](NC(=O)c4ccccc4)c4ccccc4)C(C)=C1C3(C)C)[C@]1(OC(C)=O)CO[C@@H]1C[C@@H]2O`, the inhibition is 41%. For the molecule `CC(=O)O[C@@]12CO[C@@H]1C[C@H](O)[C@@]1(C)C(=O)[C@H](O)C3=C(C)[C@@H](OC(=O)[C@H](OCCC(=O)NCCCC[C@H](NC(=O)CC[C@@H](NC(=O)[C@H](C)NC(=O)/C=C/c4ccc(F)c(F)c4)C(N)=O)C(=O)O)[C@@H](NC(=O)C(C)(C)C)c4ccccc4)C[C@@](O)([C@@H](OC(=O)c4ccccc4)[C@H]21)C3(C)C`, the inhibition amounted to 24%. To `CC(=O)O[C@@]12CO[C@@H]1C[C@H](O)[C@@]1(C)C(=O)[C@H](O)C3=C(C)[C@@H](OC(=O)[C@H](OCCC(=O)NCCCC[C@H](NC(=O)CC[C@@H](NC(=O)[C@H](C)NC(=O)/C=C/c4ccc(F)cc4)C(N)=O)C(=O)O)[C@@H](NC(=O)C(C)(C)C)c4ccccc4)C[C@@](O)([C@@H](OC(=O)c4ccccc4)[C@H]21)C3(C)C` belongs 19%; to `CC(=O)O[C@@]12CO[C@@H]1C[C@H](O)[C@@]1(C)C(=O)[C@H](O)C3=C(C)[C@@H](OC(=O)[C@H](OCCC(=O)NCCCC[C@H](NC(=O)CC[C@@H](NC(=O)[C@H](C)NC(=O)COc4cccc5ccccc45)C(N)=O)C(=O)O)[C@@H](NC(=O)C(C)(C)C)c4ccccc4)C[C@@](O)([C@@H](OC(=O)c4ccccc4)[C@H]21)C3(C)C`, 34%; to `CC(=O)O[C@H]1C(=O)[C@@]2(C)[C@H]([C@H](OC(=O)c3ccccc3)[C@]3(O)C[C@H](OC(=O)[C@H](OCCC(=O)NCCCC[C@H](NC(=O)CC[C@@H](NC(=O)[C@H](C)NC(=O)/C=C/c4ccc(Cl)cc4)C(N)=O)C(=O)O)[C@@H](NC(=O)c4ccccc4)c4ccccc4)C(C)=C1C3(C)C)[C@]1(OC(C)=O)CO[C@@H]1C[C@@H]2O`, 44%. With `CC(=O)O[C@@]12CO[C@@H]1C[C@H](O)[C@@]1(C)C(=O)[C@H](O)C3=C(C)[C@@H](OC(=O)[C@H](OCCC(=O)NCCCC[C@H](NC(=O)CC[C@@H](NC(=O)[C@H](C)NC(=O)/C=C/c4ccc(F)cc4Cl)C(N)=O)C(N)=O)[C@@H](NC(=O)C(C)(C)C)c4ccccc4)C[C@@](O)([C@@H](OC(=O)c4ccccc4)[C@H]21)C3(C)C`, the inhibition worked out at 58%. As for `COc1cccc(/C=C/C(=O)N[C@@H](C)C(=O)N[C@H](CCC(=O)N[C@@H](CCCCNC(=O)CCO[C@@H](C(=O)O[C@H]2C[C@@]3(O)[C@@H](OC(=O)c4ccccc4)[C@@H]4[C@]5(OC(C)=O)CO[C@@H]5C[C@H](O)[C@@]4(C)C(=O)[C@H](OC(C)=O)C(=C2C)C3(C)C)[C@@H](NC(=O)c2ccccc2)c2ccccc2)C(=O)O)C(N)=O)c1`, the figure is 45%; as for `CC(=O)O[C@H]1C(=O)[C@@]2(C)[C@H]([C@H](OC(=O)c3ccccc3)[C@]3(O)C[C@H](OC(=O)[C@H](OCCC(=O)NCCCC[C@H](NC(=O)CC[C@@H](NC(=O)[C@H](C)NC(=O)/C=C/c4ccc(F)cc4)C(N)=O)C(=O)O)[C@@H](NC(=O)c4ccccc4)c4ccccc4)C(C)=C1C3(C)C)[C@]1(OC(C)=O)CO[C@@H]1C[C@@H]2O`, 27%. For `CC(=O)O[C@@]12CO[C@@H]1C[C@H](O)[C@@]1(C)C(=O)[C@H](O)C3=C(C)[C@@H](OC(=O)[C@H](OCCC(=O)NCCCC[C@H](NC(=O)CC[C@@H](NC(=O)[C@H](C)NC(=O)/C=C/c4ccc(O)cc4)C(N)=O)C(=O)O)[C@@H](NC(=O)C(C)(C)C)c4ccccc4)C[C@@](O)([C@@H](OC(=O)c4ccccc4)[C@H]21)C3(C)C`, the inhibition was 23%. Take `CC(=O)O[C@@]12CO[C@@H]1C[C@H](O)[C@@]1(C)C(=O)[C@H](O)C3=C(C)[C@@H](OC(=O)[C@H](OCCC(=O)NCCCC[C@H](NC(=O)CC[C@@H](NC(=O)[C@H](C)NC(=O)/C=C/c4cccc(F)c4)C(N)=O)C(=O)O)[C@@H](NC(=O)C(C)(C)C)c4ccccc4)C[C@@](O)([C@@H](OC(=O)c4ccccc4)[C@H]21)C3(C)C`: the inhibition is 30%. Consider `CC(=O)O[C@H]1C(=O)[C@@]2(C)[C@H]([C@H](OC(=O)c3ccccc3)[C@]3(O)C[C@H](OC(=O)[C@H](OCCC(=O)NCCCC[C@H](NC(=O)CC[C@@H](NC(=O)[C@H](C)NC(=O)/C=C/c4ccc(F)c(F)c4)C(N)=O)C(=O)O)[C@@H](NC(=O)c4ccccc4)c4ccccc4)C(C)=C1C3(C)C)[C@]1(OC(C)=O)CO[C@@H]1C[C@@H]2O`, for which the inhibition was 29%.

Regarding `CC(=O)O[C@H]1C(=O)[C@@]2(C)[C@H]([C@H](OC(=O)c3ccccc3)[C@]3(O)C[C@H](OC(=O)[C@H](OCCC(=O)NCCCC[C@H](NC(=O)CC[C@@H](NC(=O)[C@H](C)NC(=O)/C=C/c4ccc(Cl)cc4F)C(N)=O)C(=O)O)[C@@H](NC(=O)c4ccccc4)c4ccccc4)C(C)=C1C3(C)C)[C@]1(OC(C)=O)CO[C@@H]1C[C@@H]2O`, the inhibition amounted to 45%.
